Data on one compound can be found in patent publication US9399017B2, “Peptide pharmaceutical for oral delivery” (Enteris BioPharma, Inc., priority 2007, dated 2016).

The conditions of series [1]: cited from earlier work.
A short description of series [2]: Plasma sCT Cmax in Beagle dogs after oral tablet (ELISA). It is filed as in vivo. The conditions noted are these: for Cmax: Beagle, dog, plasma, po, 1.7 mg, oral tablet 1.7 mg sCT. As for the experimental part: Following application of the indicated amounts of HPMC to the indicated weight gain (in those examples utilizing the undercoat), the tablets were then sealed with an enteric coat made of Eudragit L30D-55 to the indicated further weight gain. Beagle dogs were given a tablet of the indicated combination of undercoat-enteric coat and aliquots of blood were taken at 15 minute intervals for 4 hours. Plasma was separated from the blood samples and analyzed for sCT by ELISA.

SMILES strings stand for the structures.

The term half-life denotes the time in which the quantity being followed falls by half. The Cmax is the maximum level reached in the sampled fluid or tissue. Consider `CC(C)C[C@H](NC(=O)[C@H](CCCCN)NC(=O)CNC(=O)[C@H](CC(C)C)NC(=O)[C@@H](NC(=O)[C@@H]1CSSC[C@H](N)C(=O)N[C@@H](CO)C(=O)N[C@@H](CC(N)=O)C(=O)N[C@@H](CC(C)C)C(=O)N[C@@H](CO)C(=O)N[C@@H]([C@@H](C)O)C(=O)N1)C(C)C)C(=O)N[C@@H](CO)C(=O)N[C@@H](CCC(N)=O)C(=O)N[C@@H](CCC(=O)O)C(=O)N[C@@H](CC(C)C)C(=O)N[C@@H](Cc1c[nH]cn1)C(=O)N[C@@H](CCCCN)C(=O)N[C@@H](CC(C)C)C(=O)N[C@@H](CCC(N)=O)C(=O)N[C@H](C(=O)N[C@@H](Cc1ccc(O)cc1)C(=O)N1CCC[C@H]1C(=O)N[C@@H](CCCNC(=N)N)C(=O)N[C@H](C(=O)N[C@@H](CC(N)=O)C(=O)N[C@H](C(=O)NCC(=O)N[C@@H](CO)C(=O)NCC(=O)N[C@H](C(=O)N1CCC[C@H]1C(N)=O)[C@@H](C)O)[C@@H](C)O)[C@@H](C)O)[C@@H](C)O` [sCT, salmon calcitonin], for which, in series [1] (injection at conventional dosages), the “time after injection beyond which there are usually no detectable blood levels” value is given as “more than two”. Besides, in series [1] (patients), the “peak levels at which some patients report side-effects such as flushing nausea” value was no less than 200 picograms per milliliter. Besides, in series [1] (subcutaneous administration in man), the half-life is 20 to 40 min. The peak serum concentration entry in series [1] (subcutaneous administration, 100 International units) was “about 250 picograms per milliliter”. Also, the Cmax came out at 0.07 ng/mL in series [2] (HPMC undercoat 0%, L30D-55 enteric coat 4% tablet weight gain); 0.121 ng/mL in series [2] (HPMC undercoat 0%, L30D-55 enteric coat 7% tablet weight gain); 0.142 ng/mL in series [2] (HPMC undercoat 3%, L30D-55 enteric coat 4% tablet weight gain); 0.378 ng/mL in series [2] (HPMC undercoat 3%, L30D-55 enteric coat 7% tablet weight gain); 0.667 ng/mL in series [2] (HPMC undercoat 6%, L30D-55 enteric coat 4% tablet weight gain); 0.51 ng/mL in series [2] (HPMC undercoat 6%, L30D-55 enteric coat 7% tablet weight gain). In addition, the “increase of sCT Cmax when amount of enteric coat was increased nearly 1.75 fold” value in series [2] (absence of an undercoat) is on record as 1.7 fold. The “increase of sCT Cmax when an HPMC undercoat was included” value in series [2] (one embodiment) was “more than 9 fold”.
